Laboratory results taken from patent US20230192895A1, “PHARMACOKINETIC & PHARMACODYNAMIC MODEL FOR DETERMINING EFFECTIVE DOSE OF ANTI-TICAGRELOR ANTIBODY” (PhaseBio Pharmaceuticals, Inc., priority 2021, published 2023).

What was measured:
[1] = system: PB2452 binding to biotinylated ticagrelor; test: Selectivity of PB2452 by competition binding with PB2452 to biotinylated ticagrelor; set-up: species or system human
Excerpt: The chemical starting point for the development of ticagrelor was adenosine triphosphate (ATP), and ticagrelor retains an adenosine-like core.

[2] = system: P2Y12 reactivity units (PRU); test: animal or person
Excerpt: where Base refers to the baseline (prior to administration of Ticagrelor) value. Emaxi, EC50i, and the Hill coefficient (γ) are parameters to be estimated. The same structural model was used for PRU, VASP, and LTA.
The Emax parameter relating TICA to PRU (as well as VASP and LTA) was fixed to 90%. […] It is anticipated that this parameter value would be large^13 so it was fixed at a large value. […] This value was chosen based on literature^9, 14. Finally, fm was set equal to 0.30.
For parameters that were to be estimated, most of the prior distributions were uninformative or weakly informative.

[3] = system: P2Y12 reactivity units (PRU); settings: fixed in model, not estimated; cited from earlier work
[4] = Final population PK/PD model: PK parameters of TICA, TAM, PB2452 and complexes; format: in vivo, human
Method: A diagram of the model considered is in FIG. 1. Ticagrelor is dosed orally and passes through 2 transit compartments prior to entering the central compartment. […] PB2452 is dosed IV, and directly enters the central compartment. PB2452 can also diffuse into a peripheral compartment. […] In the model, it is assumed that the complexes are cleared at the same rate as PB2452. Additional compartments for the complex to enter where TICA and TAM return to circulation while PB2452 is removed from the system is also included in the model.
The expected result would be an increase in PRI/LTA/VASP to baseline (pre-ticagrelor administration) levels. Baseline PRU/LTA/VASP were added in the models observed value from the data for each subject. An ETA term was added to allow for potential measurement error. […] Astrand et al. (2019).
(§1) The PK parameters associated with this model are in Table 2. […] In the PK/PD model, the parameters associated with the PK of PB2452 (that are not associated with the relationship between PB2452/TICA/TAM) were fixed to these values.
(§2) To achieve improved fit to the study data, multiple adjustments were made to the model. […] These updates led to significant improvements in the fit of the model to the data.
The final step in model development was addition of significant covariates. […] Based on the covariate plots for the final model with the covariates included, no other covariates were added.

[5] = read-out: Kd (affinity of PB2452 for TICA and TAM); fixed in model, chosen based on literature; cited from earlier work
[6] = system: P2Y12 receptor-induced platelet aggregation and P2Y12 receptor signaling; test: Phase 1 trial: reversal of the antiplatelet effects of ticagrelor (PRU/LTA/VASP); format: in vivo, human
Method: This model was developed during the conduct of the first-in-human study and used to inform dosing decisions throughout the study. The model was then updated with final data from the trial and will be used to inform subsequent early-phase clinical trials being conducted.
The study had 10 cohorts of healthy volunteers.
Subjects in Cohorts 4-10 were pretreated with ticagrelor for 48 hours. The first dose of ticagrelor was an oral loading dose of 180 mg followed by 90 mg administered orally twice daily for 2 days.

[7] = Population PK model of PB2452 alone (two-compartment, Cohorts 1-3); format: in vivo, human
Method: Population PK and PK/PD analyses were carried out using NONMEM version 7.4, PDx-Pop version 5.2 and Intel Visual Fortran Compiler version 12 on Microsoft Windows 10 Professional.
The models described in the following sections are non-linear hierarchical models that were fit using Bayesian Markov Chain Monte-Carlo (MCMC) techniques. If θ and φj represent vectors of individual PK and PD parameters, respectively, then it was assumed that they follow distributions with population parameters Θ and Φ, respectively. The parameters Θ and Φ were then assigned prior distributions according to the prior information available. The Bayesian analysis involved the estimation of the joint distribution of all parameters conditional on the observed data: p(θ, φ, Θ, Φ|PK and PD data), where θ and φ denote collections of all individual specific PK and PD parameters, respectively. Generating random samples from the joint posterior distribution allows the marginal distribution of each parameter to be completely characterized. More details on Bayesian methods in general may be found in (Lunn, Best, Thomas, Wakefield, & Spiegelhalter, 2002).
The MU referencing technique was utilized in NONMEM (Bauer, 2019). In particular, MU_1 (for example) was set equal to THETA(1). Then a particular model parameter was set equal to EXP(MU_1+ETA(1)). So, THETA represents the population value of the parameter on the log-scale. This usually helps to improve the efficiency (speed of convergence, reduced autocorrelation) of the algorithms (MCMC, but also applies to other “advanced” algorithms available) utilized.
as §1

[8] = system: metabolism of TICA to TAM; test: Final population PK/PD model: metabolism of TICA as a function of PB2452 concentration; format: in vivo, human; settings: value is natural log of Emaxf
Excerpt: as §2

[9] = 6 g IV bolus, then 6 g over 4 h, then 6 g over 12 h, study subjects pretreated with ticagrelor
[10] = cohorts 4, 5 and 6 (1, 3, 9 g PB2452 over 30 minutes)

Molecule: Nc1ncnc2c1ncn2[C@@H]1O[C@H](COP(=O)(O)OP(=O)(O)O)[C@@H](O)[C@H]1O [ADP, adenosine diphosphate]
- Inhibition of PB2452 binding to biotinylated ticagrelor [1]: No inhibition

Molecule: Nc1ncnc2c1ncn2[C@@H]1O[C@H](COP(=O)(O)OP(=O)(O)OP(=O)(O)O)[C@@H](O)[C@H]1O [ATP, adenosine triphosphate]
- Inhibition of PB2452 binding to biotinylated ticagrelor [1]: No inhibition

Molecule: CCCSc1nc(N[C@@H]2C[C@H]2c2ccc(F)c(F)c2)c2nnn([C@@H]3C[C@H](O)[C@@H](O)[C@H]3O)c2n1 [TAM]
- THETA9 final estimate; Emax2 = EXP(THETA9), Emax for relating TAM to PRU ([2]; value is natural log of Emax2): 0.0181

Molecule: CCCSc1nc(N[C@@H]2C[C@H]2c2ccc(F)c(F)c2)c2nnn([C@@H]3C[C@H](OCCO)[C@@H](O)[C@H]3O)c2n1 [TICA, (1S,2S,3R,5S)-3-[7-{[(1R,2S)-2-(3,4-difluorophenyl)cyclopropyl]amino}-5-(propylthio)-3H-[1,2,3]triazolo[4,5-d]pyrimidin-3-yl]-5-(2-ydroxyethoxy)cyclopentane-1,2-diol]
- Emax parameter relating TICA to PRU (as well as VASP and LTA) [3]: 90%
- Range of uncomplexed TICA expected based on the model ([4]; model-based concentration): less than 2000 nmol/L
- Metabolism for TICA to TAM corresponding to fm ([4]; when no PB2452 is present): about 23%
- EC50 ([2]; Homo sapiens, read-out: EC50 (Emax model relating uncomplexed analyte to PD measure)): > 20000 nM
- THETA1 final estimate; EC50 (nmol/L) = EXP(THETA1), EC50 for relating TICA to PRU ([2]; value is natural log of EC50 in nmol/L): 10.6

Molecule: Nc1ncnc2c1ncn2[C@@H]1O[C@H](CO)[C@@H](O)[C@H]1O [adenosine]
- Inhibition of PB2452 binding to biotinylated ticagrelor [1]: No inhibition

Molecule: CCCC(=O)Nc1ncnc2c1ncn2[C@@H]1O[C@@H]2COP(=O)(O)O[C@H]2[C@H]1OC(=O)CCC [bucladesine]
- Inhibition of PB2452 binding to biotinylated ticagrelor [1]: No inhibition

Molecule: CSCCNc1nc(SCCC(F)(F)F)nc2c1ncn2[C@@H]1O[C@H](COP(=O)(O)OP(=O)(O)C(Cl)(Cl)P(=O)(O)O)[C@@H](O)[C@H]1O [cangrelor]
- Inhibition of PB2452 binding to biotinylated ticagrelor [1]: No inhibition

Molecule: O=C1CCc2cc(OCCCCc3nnnn3C3CCCCC3)ccc2N1 [cilostazol]
- Inhibition of PB2452 binding to biotinylated ticagrelor [1]: No inhibition

Molecule: NS(=O)(=O)c1cc2c(cc1Cl)NC(C1CC3C=CC1C3)NS2(=O)=O (stereo not shown) [cyclothiazide]
- Inhibition of PB2452 binding to biotinylated ticagrelor [1]: No inhibition

Molecule: CC1(C)C(C=C(Cl)Cl)C1C(=O)OC(C#N)c1ccc(F)c(Oc2ccccc2)c1 (stereo not shown) [cyfluthrin]
- Inhibition of PB2452 binding to biotinylated ticagrelor [1]: No inhibition

Molecule: CC(=O)NC[C@H]1CN(c2ccc(N3CCOCC3)c(F)c2)C(=O)O1 [linezolid]
- Inhibition of PB2452 binding to biotinylated ticagrelor [1]: No inhibition

Molecule: CC[C@H](C)C(=O)O[C@H]1C[C@@H](C)C=C2C=C[C@H](C)[C@H](CC[C@@H]3C[C@@H](O)CC(=O)O3)[C@H]21 [lovastatin]
- Inhibition of PB2452 binding to biotinylated ticagrelor [1]: No inhibition

Molecule: COC(=O)C1=C(C#N)NC(C)=C(C(=O)OC(C)C)C1c1cccc([N+](=O)[O-])c1 (stereo not shown) [nilvadipine]
- Inhibition of PB2452 binding to biotinylated ticagrelor [1]: No inhibition

Molecule: CNC(=O)c1cnn(-c2nc(N)c3ncn([C@@H]4O[C@H](CO)[C@@H](O)[C@H]4O)c3n2)c1 [regadenoson]
- Inhibition of PB2452 binding to biotinylated ticagrelor [1]: No inhibition

B1: PB2452: recombinant human IgG1λ monoclonal Fab antibody fragment that binds specifically to ticagrelor and TAM (antibody, listed as Homo sapiens)
heavy: QVQLQESGAEVKKPGSSVRVSCKASGGTFDSYSIHWVRQAPGQGLEWMGGIIPAFGTLSSAQDFQARVTISADKSTSTAYMELSGLRSEDTAVYYCARGSFDYYFWSASHPPNDALAIWGQGTLVTVSSASTKGPSVFPLAPSSKSTSGGTAALGCLVKDYFPEPVTVSWNSGALTSGVHTFPAVLQSSGLYSLSSVVTVPSSSLGTQTYICNVNHKPSNTKVDKRVEPKSCDK
light: QSVVTQPPSVSAAPGQKVTISCSGSNSDIGNNYVSWYQQLPGTAPKLLIYDNNKRPSGIPDRFSGSKSGTSATLAITGLQAGDEADYYCGTWLYDRAVGLFGGGTKVTVLGQPKAAPSVTLFPPSSEELQANKATLVCLISDFYPGAVTVAWKADSSPVKAGVETTTPSKQSNNKYAASSYLSLTPEQWKSHRSYSCQVTHEGSTVEKTVAPTECS
modifications: PB2452 VH with CH1; PB2452 VL with CL
- Kd [5]: 0.018 nM
- THETA4 final estimate; Ktr (hr^−1) = EXP(THETA4 + THETA13*(LOG(WT) − 4.35)) ([4]; value is natural log of Ktr, rate at which PB2452-TICA and PB2452-TAM complexes move through the added compartments): −1.22
- Time for which complete reversal was sustained [6, 9]: 20 to 24 h
- Time from infusion onset to complete reversal of the antiplatelet effects of ticagrelor [6, 9]: ≤ 5 min
- Effect of higher dose and prolonged infusion on PRU ([6]; cohort 7 and those that followed (18 g, bolus plus prolonged infusion)): prolonged the increase in PRU
- Effect on PRU after cessation of infusion ([6]; cohort 7 and those that followed, despite dose escalation): unexpected loss of effect was observed post-cessation of the drug infusion
- Duration of early effect on PRU before return to post-TICA levels [6, 10]: less than two
- Early effect on PRU [6, 10]: the PRU values were increased close to values before TICA was administered
- Central volume of distribution ([7]; IV, Cohorts 1-3): 2.86 L
- Clearance ([7]; IV, Cohorts 1-3): 1.88 L/h
- Half-life for the distribution phase ([7]; IV, Cohorts 1-3): 0.81 h
- Half-life for the elimination phase ([7]; IV, Cohorts 1-3): 6.68 h
- THETA3 final estimate; Q (L/hr) = EXP(THETA3) ([7]; value is natural log of Q in L/hr): −0.770
- THETA2 final estimate; V1 (L) = EXP(THETA2) ([7]; value is natural log of V1 in L): 1.05
- THETA4 final estimate; V2 (L) = EXP(THETA4) ([7]; value is natural log of V2 in L): 1.24
- THETA6 final estimate; Emaxf = EXP(THETA6), Emax for relating metabolism of TICA to PB2452 concentrations [8]: 2.98
